Measurements as given in patent US7056532B1, “Compositions for delivery of biological agents and methods for the preparation thereof” (Univ. Nebraska Bd. of Regents, priority 1997, dated 2006).

Test: Binding isotherms of surfactants to block copolymer (ion-selective electrode)
Assay type: physicochemical
Details: FIG. 1, dodecyl- versus cetyl- substituent
Description: While not wishing to be bound by any particular theory, it is believed that the above-described surfactants and block copolymers of opposite charge form stable complexes due to cooperative binding. (See, e.g., Goddard, In Interactions of Surfactants with Polymers and Proteins. Goddard and Ananthapadmanabhan, Eds., pp. 171 et seq., CRC Press, Boca Raton, Ann Arbor, London, Tokyo, 1992). Cooperative binding occurs in the sense that binding of surfactant molecules to the block copolymer is enhanced by the presence of other molecules of the same or a different surfactant already bound to the same copolymer. According to the cooperative binding mechanism which is believed to underlie this invention, surfactant binds electrostatically to the oppositely charged P-type segments of the block copolymer to form supramolecular complexes. These complexes are cooperatively stabilized by the interactions of the hydrophobic parts of surfactant molecules bound to the same P-type segment with each other. Indeed, it appears that without these hydrophobic interactions, formation of the desired complex would not occur. FIG. 1 presents the binding isotherms for interaction of cetylpyridinium bromide and dodecylpyridinium bromide with the polyethylene oxide-block-poly(sodium methacrylate) block copolymer. […] This binding mechanism is, in particular, characteristic for surface active biological agents. […]

For `CCCCCCCCCCCC[n+]1ccccc1.[Br-]` [dodecylpyridinium bromide], the “stability of the complex with polyethylene oxide-block-poly(sodium methacrylate)” value was “decreases the stability of the complex more than ten-fold”.
